Active and inactive are the calls of the source.
Tests used:
[1] = system: Jurkat; test: blockers of NF-kB activation in T cells – Jurkat, luciferase reporter, luminescence, B- and T-cell, dose response (AID 489004); assay type: functional, cell-based; settings: Homo sapiens;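 also: NF-kB luciferase reporter Jurkat cells stimulated with PMA plus ionomycin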
[2] = HEK-293T viability loss, compound-treated – cell-based, uHTS hits, cytotoxicity control for B/T-cell NF-kB inhibitor project, dose response (AID 489019); assay type: functional;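 also: IC50 reflects cytotoxicity as loss of cell viability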
[3] = molecular target: T1, COUP transcription factor 2 (Homo sapiens, UniProt P24468); test: Luminescence-based cell-based high throughput dose response assay to identify inhibitors of COUP-TFII (NR2F2).; assay type: functional;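 also: HEK293 cells transiently cotransfected with COUP-TFII expression vector and reporter; luciferase reporter luminescence driven by COUP-TFII from the pX2-168 reporter plasmid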
T1 sequence (P24468 whole entry): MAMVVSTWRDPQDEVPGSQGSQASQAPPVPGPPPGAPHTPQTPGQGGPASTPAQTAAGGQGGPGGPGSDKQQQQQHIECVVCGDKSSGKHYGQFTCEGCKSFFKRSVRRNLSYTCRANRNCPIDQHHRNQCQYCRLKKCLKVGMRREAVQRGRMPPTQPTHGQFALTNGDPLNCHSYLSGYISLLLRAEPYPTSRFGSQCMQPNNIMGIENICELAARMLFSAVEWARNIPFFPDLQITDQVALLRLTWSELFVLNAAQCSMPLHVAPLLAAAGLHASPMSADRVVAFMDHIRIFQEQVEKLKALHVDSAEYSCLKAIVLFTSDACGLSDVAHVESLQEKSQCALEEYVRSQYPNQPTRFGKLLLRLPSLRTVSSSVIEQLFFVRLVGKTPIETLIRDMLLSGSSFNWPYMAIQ

[4] = luciferase reporter signal suppression in cells – H4 neuroglioma cells, luminescence, dose response (AID 1990); assay type: functional, cell-based
[5] = Luminescence Cell-Based Dose Response HTS to Identify Inhibitors of 5'UTR Stem-Loop Driven Prion Protein mRNA Translation in H4 Neuroglioblastoma Cells. [Related pubchem assays: 1827 (Project Summary), 1813 (Primary HTS)]; assay type: functional
[6] = molecular target: T2, Heat shock factor protein 1 (Mus musculus, UniProt P38532); test: decrease of HSF1-responsive luciferase luminescence – cell-based, NIH3T3, dose retest, confirmation (AID 2382); assay type: functional;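 also: NIH3T3 fibroblasts with HSF1-driven luciferase reporter stressed by proteasome inhibitor MG132; luminescence from HSF1-driven luciferase expression after 8 hours of MG132 stress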
T2 sequence (P38532 whole entry): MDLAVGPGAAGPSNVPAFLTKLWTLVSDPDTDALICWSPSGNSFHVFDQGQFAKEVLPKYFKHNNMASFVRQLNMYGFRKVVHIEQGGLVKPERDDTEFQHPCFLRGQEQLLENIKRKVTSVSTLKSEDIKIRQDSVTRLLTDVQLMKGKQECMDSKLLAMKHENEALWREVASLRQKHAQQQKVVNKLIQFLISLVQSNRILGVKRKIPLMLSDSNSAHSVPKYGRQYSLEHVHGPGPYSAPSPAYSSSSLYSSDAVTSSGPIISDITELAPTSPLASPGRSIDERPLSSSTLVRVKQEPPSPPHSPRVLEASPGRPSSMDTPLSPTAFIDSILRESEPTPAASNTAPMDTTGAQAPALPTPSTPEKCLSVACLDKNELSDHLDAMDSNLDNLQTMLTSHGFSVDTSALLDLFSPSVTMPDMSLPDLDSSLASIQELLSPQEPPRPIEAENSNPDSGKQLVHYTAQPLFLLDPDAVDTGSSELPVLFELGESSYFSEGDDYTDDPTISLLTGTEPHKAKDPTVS

[7] = alpha-synuclein stem-loop luciferase translation blockers – H4 neuroglioma cells, luminescence, confirmation (AID 1988); assay type: functional, cell-based
[8] = system: CHO-K1; test: Counterscreen for antagonists of the orexin 1 receptor (OX1R; HCRTR1): Homogeneous time resolved fluorescence (HTRF)-based cell-based dose response assay to identify antagonists of the parental CHO-K1 cell line. [Related pubchem assays (depositor defined):AID434989, AID435008, AID463079, AID485270, AID492963, AID492964, AID492965, AID493232, AID504699, AID504701]; assay type: functional; settings: Cricetulus griseus;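 also: potency for inhibition of ATP-stimulated IP1 production as antagonists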
[9] = Counterscreen for antagonists of the orexin 1 receptor (OX1R; HCRTR1): Fluorescence-based cell-based high throughput dose response assay to identify antagonists of the parental CHO cell line. [Related pubchem assays (depositor defined):AID434989, AID435008, AID463079, AID485270, AID492963, AID492964, AID492965, AID493232, AID504699, AID504701]; assay type: functional
[10] = molecular target: T3, Orexin/Hypocretin receptor type 1 (Homo sapiens, UniProt O43613); test: Homogeneous Time Resolved Fluorescence (HTRF)-based cell-based high throughput dose response assay for antagonists of the orexin 1 receptor (OX1R; HCRTR1). [Related pubchem assays (depositor defined):AID434989, AID435008, AID463079, AID485270, AID492963, AID492964, AID492965, AID493232, AID504717, AID504718]; assay type: functional
T3 sequence (O43613 whole entry): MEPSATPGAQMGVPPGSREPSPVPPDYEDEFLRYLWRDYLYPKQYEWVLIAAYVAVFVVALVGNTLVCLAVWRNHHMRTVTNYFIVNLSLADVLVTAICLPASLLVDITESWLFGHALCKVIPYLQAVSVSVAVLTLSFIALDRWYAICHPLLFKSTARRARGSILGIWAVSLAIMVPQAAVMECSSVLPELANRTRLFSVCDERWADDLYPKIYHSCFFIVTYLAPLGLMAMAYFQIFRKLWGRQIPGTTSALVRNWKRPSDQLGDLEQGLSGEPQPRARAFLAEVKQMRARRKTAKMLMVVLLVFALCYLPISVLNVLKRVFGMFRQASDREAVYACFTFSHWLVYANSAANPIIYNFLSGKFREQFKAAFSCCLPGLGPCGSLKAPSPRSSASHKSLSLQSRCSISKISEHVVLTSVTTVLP

[11] = molecular target: T3, Orexin/Hypocretin receptor type 1; test: Fluorescence-based cell-based high throughput dose response assay for antagonists of the orexin 1 receptor (OX1R; HCRTR1). [Related pubchem assays (depositor defined):AID434989, AID435008, AID463079, AID485270, AID492963, AID492964, AID492965, AID493232, AID504717, AID504718]; assay type: functional
[12] = molecular target: T4, Orexin receptor type 2 (Homo sapiens, UniProt O43614); test: Counterscreen assay for antagonists of the orexin 1 receptor (OX1R; HCRTR1): Fluorescence-based cell-based dose response assay for antagonists of the orexin 2 receptor (OX2R; HCRTR2), run by assay provider.; assay type: functional
T4 sequence (O43614 whole entry): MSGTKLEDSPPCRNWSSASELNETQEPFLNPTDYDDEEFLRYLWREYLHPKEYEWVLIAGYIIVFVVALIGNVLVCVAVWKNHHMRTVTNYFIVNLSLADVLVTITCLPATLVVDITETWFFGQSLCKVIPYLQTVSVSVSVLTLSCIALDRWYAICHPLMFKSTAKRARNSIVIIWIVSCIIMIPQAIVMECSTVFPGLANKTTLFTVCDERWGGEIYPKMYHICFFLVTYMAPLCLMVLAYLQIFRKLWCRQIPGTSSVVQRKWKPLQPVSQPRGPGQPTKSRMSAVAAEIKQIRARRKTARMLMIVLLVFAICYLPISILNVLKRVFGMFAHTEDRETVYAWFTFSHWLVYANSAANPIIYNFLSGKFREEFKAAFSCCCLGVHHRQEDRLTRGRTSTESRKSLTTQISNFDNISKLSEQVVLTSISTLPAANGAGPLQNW

[13] = molecular target: T4, Orexin receptor type 2; test: Counterscreen assay for antagonists of the orexin 1 receptor (OX1R; HCRTR1): Homogeneous Time Resolved Fluorescence (HTRF)-based cell-based dose response assay for antagonists of the orexin 2 receptor (OX2R; HCRTR2), run by assay provider.; assay type: functional
[14] = system: HEK293; test: HEK293T cell viability loss, resazurin readout – resazurin fluorescence, cytotoxicity control for NF-kB activator project, SAR follow-up (AID 493251); assay type: functional, cell-based; settings: Homo sapiens
[15] = system: Jurkat; test: SAR Analysis of small molecule inhibitors of T-cell specific antigen receptor-induced NF-kB activation in a Jurkat cell line using a luminescence assay - Set 2. [Related pubchem assays (depositor defined):AID435003, AID435012, AID465]; assay type: functional, cell-based; settings: Homo sapiens
[16] = system: HEK293; test: SAR Analysis of small molecule inhibitors of T-cell specific antigen receptor-induced NF-kB activation in a HEK-293T cell line using a luminescence assay - Set 2. [Related pubchem assays (depositor defined):AID435003, AID435012, AID489026]; assay type: functional, cell-based; settings: Homo sapiens
[17] = molecular target: T5, Insulin-degrading enzyme (Homo sapiens, UniProt P14735); test: recombinant IDE activation, cell-free – biochemical, fluorescence polarization, counter-screen for IDE activator project, dose response (AID 588681)
T5 sequence (P14735 whole entry): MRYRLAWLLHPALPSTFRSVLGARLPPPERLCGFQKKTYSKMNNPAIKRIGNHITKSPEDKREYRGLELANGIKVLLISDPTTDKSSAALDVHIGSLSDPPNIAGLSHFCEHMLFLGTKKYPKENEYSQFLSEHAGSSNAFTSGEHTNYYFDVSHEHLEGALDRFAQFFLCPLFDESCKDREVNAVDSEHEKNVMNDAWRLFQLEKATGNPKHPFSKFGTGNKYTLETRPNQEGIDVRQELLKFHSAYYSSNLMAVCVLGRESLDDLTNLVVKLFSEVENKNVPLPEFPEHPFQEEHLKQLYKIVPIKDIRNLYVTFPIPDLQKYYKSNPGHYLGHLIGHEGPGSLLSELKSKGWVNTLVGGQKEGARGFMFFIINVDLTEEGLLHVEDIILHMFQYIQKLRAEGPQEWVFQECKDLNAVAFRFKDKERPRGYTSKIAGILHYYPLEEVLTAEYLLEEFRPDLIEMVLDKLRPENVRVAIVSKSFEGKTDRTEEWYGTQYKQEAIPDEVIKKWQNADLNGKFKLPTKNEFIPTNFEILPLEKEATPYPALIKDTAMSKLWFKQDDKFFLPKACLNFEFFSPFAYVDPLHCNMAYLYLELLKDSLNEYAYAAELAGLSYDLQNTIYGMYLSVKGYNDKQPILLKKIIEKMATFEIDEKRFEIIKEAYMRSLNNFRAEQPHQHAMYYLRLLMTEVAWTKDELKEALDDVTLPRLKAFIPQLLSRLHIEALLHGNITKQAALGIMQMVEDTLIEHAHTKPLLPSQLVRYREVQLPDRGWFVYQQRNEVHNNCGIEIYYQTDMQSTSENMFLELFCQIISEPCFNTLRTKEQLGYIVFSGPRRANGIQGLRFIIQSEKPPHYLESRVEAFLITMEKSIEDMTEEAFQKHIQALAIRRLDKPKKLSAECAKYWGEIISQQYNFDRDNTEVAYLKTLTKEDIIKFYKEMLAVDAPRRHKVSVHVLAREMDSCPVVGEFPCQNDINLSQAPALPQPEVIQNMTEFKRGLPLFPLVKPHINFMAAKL

[18] = molecular target: T5, Insulin-degrading enzyme; test: cellular IDE activation of Abeta substrate cleavage – fluorescence polarization, HEK cells, dose response (AID 588439); assay type: functional, cell-based
[19] = system: HEK293; test: membrane integrity loss in HEK cells – cell-based, fluorescence, cytotoxicity control for IDE activator project, dose response (AID 588440); assay type: functional; settings: Homo sapiens;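 also: cytotoxicity by LDH release measuring loss of membrane integrity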
[20] = system: HEK293; test: optical interference in Abeta FP readout, dose response, artefact control for IDE activator project, biochemical, fluorescence polarization (AID 588442); assay type: functional, cell-based; settings: Homo sapiens
[21] = molecular target: T6, Cytochrome P450 1A2 (Homo sapiens, UniProt P05177);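 also: PubChem cytochrome P450 panel assay, CYP1A2 panel member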
T6 sequence (P05177 whole entry): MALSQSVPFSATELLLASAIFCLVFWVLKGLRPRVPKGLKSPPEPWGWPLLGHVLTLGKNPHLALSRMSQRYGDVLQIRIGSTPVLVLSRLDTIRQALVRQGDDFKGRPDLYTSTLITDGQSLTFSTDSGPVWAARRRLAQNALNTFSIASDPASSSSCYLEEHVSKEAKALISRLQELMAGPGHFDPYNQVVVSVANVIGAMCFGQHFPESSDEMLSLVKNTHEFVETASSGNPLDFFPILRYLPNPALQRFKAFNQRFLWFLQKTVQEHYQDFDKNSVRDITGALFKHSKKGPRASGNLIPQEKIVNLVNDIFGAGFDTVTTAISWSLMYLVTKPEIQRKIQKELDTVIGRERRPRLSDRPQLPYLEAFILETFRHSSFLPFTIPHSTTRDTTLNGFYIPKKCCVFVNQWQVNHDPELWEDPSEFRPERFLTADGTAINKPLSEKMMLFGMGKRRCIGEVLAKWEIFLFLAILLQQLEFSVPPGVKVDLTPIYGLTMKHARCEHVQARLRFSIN

COc1ccc(NS(=O)(=O)c2cccc(NC(=O)c3ccc(Cl)nc3)c2)cc1
IC50 [1]: 38.2 µM (inactive) | IC50 [2]: > 80 µM (inactive) | IC50 [3]: 3.21 µM (active)

Cc1ccc(C(=O)Nc2cccc(C(F)(F)F)c2)cc1NC(=O)c1ccno1
EC50 [4]: < 0.1 µM (active) | EC50 [5]: 6.47 µM (active) | EC50 [6]: 0.333 µM (active) | EC50 [7]: 0.285 µM (active) | IC50 [1]: > 80 µM (inactive) | IC50 [2]: > 80 µM (inactive)

N#Cc1cccn1-c1nccc(-c2cccs2)n1
IC50 [8]: > 66.2 µM (inactive) | IC50 [9]: > 49.7 µM (inactive) | IC50 [10]: 3.66 µM (active) | IC50 [11]: 20.3 µM (inactive) | IC50 [12]: > 88.8 µM (inactive) | IC50 [13]: > 50 µM (inactive)

CCCCC(=O)NC(c1ccc(C)cc1)c1ccc2cccnc2c1O (stereo not drawn)
IC50 [14]: 26.1 µM (inactive) | IC50 [15]: 2.65 µM (active) | IC50 [16]: 2.78 µM (active)

Cc1ccccc1OC/C(O)=C(\C#N)c1nc2ccccc2[nH]1
EC50 [17]: > 54.7 µM (inactive) | EC50 [18]: > 54.7 µM (inactive) | IC50 [19]: > 89.2 µM (inactive) | EC50 [20]: > 54.7 µM (inactive) | AC50 [21]: 0.282 µM (inconclusive)

Source: ChEMBL document CHEMBL1201862, “PubChem BioAssay data set” (2004)
